Legend:
Format in all cases: functional
Rattus norvegicus [1] = test: Anti-inflammatory activity in Rattus norvegicus albino (rat) assessed as carageenaan-induced paw edema at 100 mg/kg, po administered 1 hr prior to carageenaan-challenge measured at 30 min relative to control (reference value: 30.1%)
Rattus norvegicus [2] = test: Anti-inflammatory activity in Rattus norvegicus albino (rat) assessed as carageenaan-induced paw edema at 100 mg/kg, po administered 1 hr prior to carageenaan-challenge measured at 90 min relative to control (reference value: 38.7%)
Rattus norvegicus [3] = test: Anti-inflammatory activity against carageenaan-induced paw edema in Rattus norvegicus albino (rat) at 100 mg/kg, po administered 1 hr prior to carageenaan-challenge measured up to 3 hr
Rattus norvegicus [4] = test: Anti-inflammatory activity in Rattus norvegicus albino (rat) assessed as carageenaan-induced paw edema at 100 mg/kg, po administered 1 hr prior to carageenaan-challenge measured at 180 min relative to control (reference value: 22.3%)
Rattus norvegicus [5] = test: Anti-inflammatory activity in Rattus norvegicus albino (rat) assessed as carageenaan-induced paw edema at 100 mg/kg, po administered 1 hr prior to carageenaan-challenge measured at 90 min (reference value: 100%)
Rattus norvegicus [6] = test: Anti-inflammatory activity in Rattus norvegicus albino (rat) assessed as carageenaan-induced paw edema at 100 mg/kg, po administered 1 hr prior to carageenaan-challenge measured at 30 min (reference value: 100%)
Rattus norvegicus [7] = test: Anti-inflammatory activity in Rattus norvegicus albino (rat) assessed as carageenaan-induced paw edema at 100 mg/kg, po administered 1 hr prior to carageenaan-challenge measured at 120 min (reference value: 100%)

Row | SMILES | Activity (Rattus norvegicus [1]) [%] | Activity (Rattus norvegicus [2]) [%] | Activity (Rattus norvegicus [3]) [%] | Activity (Rattus norvegicus [4]) [%] | Activity (Rattus norvegicus [5]) [%] | Activity (Rattus norvegicus [6]) [%] | Activity (Rattus norvegicus [7]) [%]
1 | Cc1n[nH]c2nnc3nc(-c4ccccc4)[nH]c3c12 | 14.1 | 23.4 | 30 | 14.9 | – | – | –
2 | Cc1n[nH]c2nnc3nc(/C=C\c4ccccc4)[nH]c3c12 | 3.9 | 6.2 | 35 | 0.4 | – | – | –
3 | Cc1n[nH]c2nnc3nc(-c4ccccc4C(=O)O)[nH]c3c12 | 15.1 | 23.3 | 41 | 20.6 | – | – | –
4 | Cc1n[nH]c2nnc3nc(CCC(=O)O)[nH]c3c12 | 6.5 | 18.4 | 33 | 21.4 | – | – | –
5 | Cc1n[nH]c2nnc3nc(CCCCC(=O)O)[nH]c3c12 | 33.9 | 46.5 | 31 | 33.6 | – | – | –
6 | CC(C)Cc1ccc(C(C)C(=O)O)cc1 (centres undefined) [IBUPROFEN] | – | – | 49 | – | 108 | 101 | 11.6
